Results from patent US20220232831A1, “NOVEL NON-CODING HETEROCYCLIC AMINO ACIDS (NCHAA) AND THEIR USE AS HERBICIDES” (Fortephest Ltd., priority 2019, published 2022).

Columns and labels:
[1] = tested on: Seeds of Lettuce R. (Super-Jericho); assay: Filter paper bioassay with lettuce seeds (germination and early plant development); type: in vivo; conditions: lettuce seeds on filter paper; 1, 0.1, 0.01, 0.001 mM; radicle and shoots assessed after 6 days
Experimental: Seeds of Lettuce R. (Super-Jericho, non-sterilized) were obtained from Ben Shahar Moshe Ltd., 99% purity.
Filter Paper Bioassays with Lettuce Seeds:
The protocol is following Bertin et al. 2009 and Movellan et al. 2014 with specified modifications as described below.
Seeds were placed on Whatman no. 1 filter paper (Whatman, Middlesex, U.K.) in Petri dishes (10 seeds per plate) supplemented with 2.0 ml of water (Control) or with a solution comprising 1 mM, 0.1 mM, 0.01 mM and 0.001 mM of test material. Petri dishes with seeds were placed in a tray at an angle of 45°. The trays were kept in dark for 48 hours and then transferred to the growth chamber (22° C., 0.045 mmol×m−2×s−1 photosynthetic photon flux density; 6/18 dark/light cycle) for additional 4 days. Each experiment was performed at least in two repeats. The development of radicle and shoots of experimental and control plants were visually assessed 6 days after the beginning of the test to determine Minimal Effective Concentration (MEC) of test material. In the context of the invention, MEC is defined as the lowest concentration level of a test material that caused deviation (absence of germination or malformation of radicle and shoots) from the plant's development in the Control group.

[2] = tested on: Romaine lettuce (Lactuca sativa L.) plants; assay: Post-emergency herbicidal activity on Romaine lettuce plants; type: in vivo; conditions: Romaine lettuce at stage 2 to 3 leaves; compound in 0.1% Silwet, up to 0.5%; visual evaluation vs control plants
Experimental: The tests were performed on Romaine lettuce (Lactuca sativa L.) plants at the stage 2 to 3 leaves. The plants were grown on 300 well trays packed with soil, well dimensions 2×2×5 cm. Each compound was dissolved in 0.1% water solution of agronomically acceptable surfactant Silwet to final concentrations ranging from 0.0% (Control) to 0.5%. Two weeks after the treatment the herbicidal effects of the respective test material were visually evaluated by a comparison with the control plants. In addition, the aboveground part of the plant was neatly cut and weighed (wet weight). Each test was performed on 20 to 40 plants. The degree of growth inhibition and damage was evaluated according to the parameters in Table 2. Plant development at 7, 14, and 21 DAA (days after application) were evaluated on a scale of 0 to 100, in which score 0 represents dead plants and score 100 represents healthy plants according to plant vigor, height, and leaf color. Each test included 20 to 40 plants.

Row | SMILES | Minimal Effective Concentration (MEC) as activity score, seeds germination & early plants development [1] | post-emergency herbicidal activity (Activity Index: plant's development vs Control) [2]
1 | NC(Cc1cncc(Cl)c1)C(=O)O (centres unmarked) [Code 622] | Strong (0.1 mM) | Moderate (From 50 to 75)
2 | NC(Cc1cc(Cl)cnc1Cl)C(=O)O (centres unmarked) [Code 624] | Moderate (1 mM) | Moderate (From 50 to 75)
3 | NC(Cc1ccncn1)C(=O)O (centres unmarked) [Code 625] | Moderate (1 mM) | Weak (More than 75)
4 | NC(Cc1cncc(F)c1)C(=O)O (centres unmarked) [Code 626] | Strong (0.1 mM) | Strong (From 25 to 50)
5 | NC(Cc1ccc(Cl)nc1)C(=O)O (centres unmarked) [Code 627] | Strong (0.1 mM) | Moderate (From 50 to 75)
6 | NC(Cc1cc(Cl)nc(Cl)c1)C(=O)O (centres unmarked) [Code 628] | Moderate (1 mM) | Very Strong (From 15 to 25)
7 | NC(Cc1c(Cl)cncc1Cl)C(=O)O (centres unmarked) [Code 629] | Weak (More than 1 mM) | Moderate (From 50 to 75)
8 | NC(Cc1c(F)cncc1F)C(=O)O (centres unmarked) [Code 630] | Moderate (1 mM) | Strong (From 25 to 50)
9 | CN(C)c1cc(CC(N)C(=O)O)ccn1 (centres unmarked) [Code 631] | Weak (More than 1 mM) | Weak (More than 75)
10 | NC(Cc1cnc(Br)c(Br)c1)C(=O)O (centres unmarked) [Code 633] | Strong (0.1 mM) | Strong (From 25 to 50)
11 | NC(Cc1cc(Br)nc(Br)c1)C(=O)O (centres unmarked) [Code 634] | Strong (0.1 mM) | Very Strong (From 15 to 25)
12 | NC(Cc1ccnc(Br)c1Br)C(=O)O (centres unmarked) [Code 635] | Weak (More than 1 mM) | Weak (More than 75)
13 | NC(Cc1cncc(C(F)(F)F)c1)C(=O)O (centres unmarked) [Code 637] | Strong (0.1 mM) | Weak (More than 75)
14 | NC(Cc1cnc(Cl)c(Cl)c1)C(=O)O (centres unmarked) [Code 641] | Strong (0.1 mM) | Very Strong (From 15 to 25)
15 | NC(Cc1cc[nH]c(=O)c1)C(=O)O (centres unmarked) [Code 642] | Weak (More than 1 mM) | Weak (More than 75)
16 | CN(C)c1ccncc1CC(N)C(=O)O (centres unmarked) [Code 643] | Weak (More than 1 mM) | Weak (More than 75)
17 | NC(Cc1ccc[nH]c1=O)C(=O)O (centres unmarked) [Code 644] | Weak (More than 1 mM) | Weak (More than 75)
18 | NC(Cc1cc(=O)[nH]cn1)C(=O)O (centres unmarked) [Code 645] | Weak (More than 1 mM) | Weak (More than 75)
19 | NC(Cc1cnc[nH]c1=O)C(=O)O (centres unmarked) [Code 646] | Weak (More than 1 mM) | Weak (More than 75)
20 | NC(Cc1ccc(=O)[nH]c1)C(=O)O (centres unmarked) [Code 650] | Moderate (1 mM) | Weak (More than 75)

Row | SMILES | Minimal Effective Concentration (MEC) as activity score, seeds germination & early plants development [1] | post-emergency herbicidal activity (Activity Index: plant's development vs Control) [2]
21 | NC(Cc1cc(=O)[nH]c(=O)[nH]1)C(=O)O (centres unmarked) [Code 652] | Weak (More than 1 mM) | Weak (More than 75)
22 | NC(Cc1cc(=O)[nH]c(S)n1)C(=O)O (centres unmarked) [Code 653] | Weak (More than 1 mM) | Weak (More than 75)
23 | CCCOC(=O)C(N)Cc1ccnc(Br)c1 (centres unmarked) [Code 654] | Strong (0.1 mM) | Strong (From 25 to 50)
24 | NC(Cc1c(F)cnc(Br)c1F)C(=O)O (centres unmarked) [Code 655] | Strong (0.1 mM) | Maximal (Less than 15)
25 | CCCOC(=O)C(N)Cc1c(F)cnc(Br)c1F (centres unmarked) [Code 656] | Strong (0.1 mM) | Very Strong (From 15 to 25)
26 | NC(CNS(=O)(=O)c1ccnc(Br)c1)C(=O)O (centres unmarked) [Code 657] | Weak (More than 1 mM) | Weak (More than 75)
27 | CCCOC(=O)C(N)CNS(=O)(=O)c1ccnc(Br)c1 (centres unmarked) [Code 658] | Weak (More than 1 mM) | Weak (More than 75)
28 | CCOC(=O)C(N)Cc1cnc(Br)c(Br)c1 (centres unmarked) [Code 661] | Maximal (0.01 mM and less) | Moderate (From 50 to 75)
29 | CCOC(=O)C(N)Cc1ccnc(Br)c1Br (centres unmarked) [Code 662] | Strong (0.1 mM) | Moderate (From 50 to 75)
30 | NC(Cc1cc(C(F)(F)F)cnc1Cl)C(=O)O (centres unmarked) [Code 663] | Strong (0.1 mM) | Moderate (From 50 to 75)
31 | Nc1ncc(CC(N)C(=O)O)c(=O)[nH]1 (centres unmarked) [Code 664] | Moderate (1 mM) | Weak (More than 75)
32 | NC(Cc1cnc(O)c([N+](=O)[O-])c1)C(=O)O (centres unmarked) [Code 665] | Moderate (1 mM) | Weak (More than 75)
33 | COC(=O)C(N)Cc1ccnc(Br)c1 (centres unmarked) [Code 666] | Strong (0.1 mM) | Maximal (Less than 15)
34 | C[n+]1cccc(CC(N)C(=O)O)c1 (centres unmarked) [Code 667] | Weak (More than 1 mM) | Weak (More than 75)
35 | NC(Cc1ccc[n+](O)c1)C(=O)O (centres unmarked) [Code 668] | Weak (More than 1 mM) | Weak (More than 75)
36 | Cc1nc(N)c(CC(N)C(=O)O)c(O)n1 (centres unmarked) [Code 669] | Weak (More than 1 mM) | Weak (More than 75)
37 | COC(=O)C(N)Cc1cc(Br)nc(Br)c1 (centres unmarked) [Code 670] | Strong (0.1 mM) | Very Strong (From 15 to 25)
38 | CCOC(=O)C(Cc1ccc(Br)nc1)NC(C)=O (centres unmarked) [Code 671] | Strong (0.1 mM) | Weak (More than 75)
39 | COC(=O)C(Cc1ccc(Br)nc1)NC(C)=O (centres unmarked) [Code 672] | Strong (0.1 mM) | Moderate (From 50 to 75)
40 | CCOC(=O)C(Cc1ccnc(OC)n1)NC(C)=O (centres unmarked) [Code 673] | Weak (More than 1 mM) | Weak (More than 75)
